{
  "source": "ChEMBL document CHEMBL1201862",
  "about": "“PubChem BioAssay data set” (2004)",
  "key": {"[1]": {"system": "H4", "assay": "Luminescence Cell-Based Dose Response HTS to Identify Activators of 5'UTR Stem-Loop Driven Prion Protein mRNA Translation in H4 Neuroglioblastoma Cells. [Related pubchem assays: 1829 (Project Summary), 1814 (Primary HTS)]", "format": "functional", "details": "Homo sapiens"}, "[2]": {"assay": "Luminescence Cell-Based Dose Confirmation HTS to Identify Activators of 5'UTR Stem-Loop Driven Alpha-Synuclein mRNA Translation in H4 Neuroglioblastoma Cells. [Related pubchem assays: 1829 (Project Summary), 1814 (Primary HTS)]", "format": "functional"}, "[3]": {"assay": "Luminescence Cell-Based Dose Response HTS to Identify Activators of Luciferase Translation or Activity in H4 […] Cells. [Related pubchem assays: 1829 (Project Summary), 1814 (Primary HTS)]", "format": "functional"}, "[4]": {"molecular_target": "Large T antigen (Simian virus 40, UniProt P03070)", "sequence (P03070 whole entry)": "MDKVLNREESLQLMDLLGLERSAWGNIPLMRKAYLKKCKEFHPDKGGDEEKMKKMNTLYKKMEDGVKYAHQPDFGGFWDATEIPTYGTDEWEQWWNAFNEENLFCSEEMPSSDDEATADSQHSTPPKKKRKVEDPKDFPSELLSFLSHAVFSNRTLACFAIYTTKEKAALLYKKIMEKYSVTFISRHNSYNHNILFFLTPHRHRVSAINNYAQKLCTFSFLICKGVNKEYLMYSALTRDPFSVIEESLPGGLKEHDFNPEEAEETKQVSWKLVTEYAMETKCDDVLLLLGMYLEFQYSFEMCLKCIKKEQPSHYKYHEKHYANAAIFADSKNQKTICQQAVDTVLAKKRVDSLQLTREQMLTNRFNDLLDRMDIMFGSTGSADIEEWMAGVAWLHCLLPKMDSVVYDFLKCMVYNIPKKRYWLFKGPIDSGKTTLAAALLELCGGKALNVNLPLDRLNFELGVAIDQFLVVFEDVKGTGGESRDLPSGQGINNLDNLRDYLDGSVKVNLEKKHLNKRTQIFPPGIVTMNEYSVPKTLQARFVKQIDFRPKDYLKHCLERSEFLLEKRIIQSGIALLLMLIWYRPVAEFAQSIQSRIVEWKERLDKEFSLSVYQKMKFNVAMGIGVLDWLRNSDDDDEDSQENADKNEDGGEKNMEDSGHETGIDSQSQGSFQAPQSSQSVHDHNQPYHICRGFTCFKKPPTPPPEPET", "format": "functional, Betapolyomavirus macacae"}, "[5]": {"molecular_target": "T1, Calpain-2 catalytic subunit (Sus scrofa, UniProt P43367)", "T1 sequence (P43367 whole entry)": "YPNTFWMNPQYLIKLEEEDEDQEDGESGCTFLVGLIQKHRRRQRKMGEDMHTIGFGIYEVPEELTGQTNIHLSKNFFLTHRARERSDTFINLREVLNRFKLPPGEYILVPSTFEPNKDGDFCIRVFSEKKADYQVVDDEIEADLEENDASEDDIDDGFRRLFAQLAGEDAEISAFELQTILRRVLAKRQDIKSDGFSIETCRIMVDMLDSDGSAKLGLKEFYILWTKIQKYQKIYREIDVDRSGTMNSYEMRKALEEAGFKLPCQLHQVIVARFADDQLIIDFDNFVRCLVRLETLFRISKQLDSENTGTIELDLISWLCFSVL", "assay": "m-calpain protease blockers, concentration series – biochemical, fluorogenic peptide substrate, dose response (AID 1420)", "format": "functional"}, "[6]": {"assay": "Luminescence Cell-Based Dose Confirmation HTS to Identify Inhibitors of Platelet Dense Granule Release. [Related pubchem assays: 1663 (Primary HTS), 1678 (Summary of Project)]", "format": "functional"}, "[7]": {"molecular_target": "Luciferin 4-monooxygenase (Photinus pyralis, UniProt P08659)", "sequence (P08659 whole entry)": "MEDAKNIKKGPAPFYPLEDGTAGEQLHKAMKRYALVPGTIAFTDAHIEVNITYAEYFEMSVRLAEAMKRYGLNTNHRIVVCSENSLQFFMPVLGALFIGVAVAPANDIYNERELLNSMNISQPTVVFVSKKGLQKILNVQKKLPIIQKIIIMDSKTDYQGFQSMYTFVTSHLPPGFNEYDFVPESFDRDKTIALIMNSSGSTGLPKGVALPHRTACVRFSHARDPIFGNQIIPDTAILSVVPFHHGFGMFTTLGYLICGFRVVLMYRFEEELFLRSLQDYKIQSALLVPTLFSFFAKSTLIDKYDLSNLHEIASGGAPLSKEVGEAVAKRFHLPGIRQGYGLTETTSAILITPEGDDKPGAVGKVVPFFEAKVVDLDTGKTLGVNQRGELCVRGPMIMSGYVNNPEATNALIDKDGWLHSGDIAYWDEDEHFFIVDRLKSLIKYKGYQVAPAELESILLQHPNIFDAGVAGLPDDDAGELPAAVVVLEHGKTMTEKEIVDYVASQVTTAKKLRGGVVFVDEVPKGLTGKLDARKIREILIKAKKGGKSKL", "assay": "inhibition of purified Photinus pyralis luciferase – biochemical, luminescence, dose response (AID 1891)"}, "[8]": {"assay": "blockers of HIV-1 envelope-mediated cell-cell fusion – cherry-pick, dose response (AID 652057)", "format": "functional, cell-based"}, "[9]": {"assay": "HIV-1 AD8 envelope cell-cell fusion blockers – cherry-pick, dose response (AID 652062);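 further: luciferase signal from cell-cell fusion driven by HIV-1 clade B AD8 Env; potency is for inhibitors of fusion seen as a drop in luminescence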", "format": "functional, cell-based"}, "[10]": {"molecular_target": "Cytochrome P450 2C9 (Homo sapiens, UniProt P11712)", "sequence (P11712 whole entry)": "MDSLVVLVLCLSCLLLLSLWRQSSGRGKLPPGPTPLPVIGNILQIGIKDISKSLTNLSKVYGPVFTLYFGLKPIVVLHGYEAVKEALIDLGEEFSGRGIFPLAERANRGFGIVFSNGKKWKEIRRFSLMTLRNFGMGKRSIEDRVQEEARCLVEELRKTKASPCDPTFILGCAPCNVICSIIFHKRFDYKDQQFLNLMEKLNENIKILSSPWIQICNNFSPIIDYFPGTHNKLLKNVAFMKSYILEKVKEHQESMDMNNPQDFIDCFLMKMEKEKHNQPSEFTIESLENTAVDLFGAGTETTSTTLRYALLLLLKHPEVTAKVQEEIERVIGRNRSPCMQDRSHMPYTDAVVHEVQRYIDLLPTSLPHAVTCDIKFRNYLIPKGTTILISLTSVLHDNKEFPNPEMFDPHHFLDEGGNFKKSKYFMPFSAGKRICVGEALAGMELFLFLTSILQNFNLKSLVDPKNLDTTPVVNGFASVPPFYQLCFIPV"}, "[11]": {"molecular_target": "T2, Cytochrome P450 1A2 (Homo sapiens, UniProt P05177)", "T2 sequence (P05177 whole entry)": "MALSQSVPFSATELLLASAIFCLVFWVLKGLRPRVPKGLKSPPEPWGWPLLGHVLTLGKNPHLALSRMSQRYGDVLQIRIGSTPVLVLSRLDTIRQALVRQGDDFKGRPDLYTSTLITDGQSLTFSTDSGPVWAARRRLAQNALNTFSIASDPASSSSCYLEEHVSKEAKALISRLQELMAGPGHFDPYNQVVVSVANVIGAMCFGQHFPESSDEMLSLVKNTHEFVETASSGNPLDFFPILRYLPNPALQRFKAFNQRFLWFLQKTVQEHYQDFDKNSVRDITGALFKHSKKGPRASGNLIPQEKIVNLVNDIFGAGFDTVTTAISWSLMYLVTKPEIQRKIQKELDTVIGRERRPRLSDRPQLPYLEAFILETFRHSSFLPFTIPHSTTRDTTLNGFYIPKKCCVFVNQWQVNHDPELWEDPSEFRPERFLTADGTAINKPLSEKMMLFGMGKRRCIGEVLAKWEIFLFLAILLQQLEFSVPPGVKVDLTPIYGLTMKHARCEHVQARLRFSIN"}, "[12]": {"assay": "non-specific 3'UTR reporter inhibition in Clone20-Shn3RL – cell-based, Renilla luciferase, cherry-picked, counter-screen for Shn3 inhibitor project, dose response (AID 624133)", "format": "functional"}, "[13]": {"assay": "loss of viability in HepG2 cells – cell-based, CellTiter-Glo, cherry-picked, cytotoxicity control for Shn3 inhibitor project, dose response (AID 624134)", "format": "functional"}, "[14]": {"assay": "reduction of Shn3 3'UTR-driven luciferase in osteoblasts – cell-based, Clone20 osteoblasts, firefly luciferase, cherry-picked, dose response (AID 624132)", "format": "functional"}},
  "note": "The source made the active and inactive calls.",
  "data": [
    {"smiles": "Cc1ccc(-c2nnc(CCC(=O)NCC3C4CC5CC(C4)CC3C5)o2)s1", "note": "(stereo not given)", "values": [
      {"measurement": "EC50", "setting": "[1]", "value": "20.2 µM (active)"},
      {"measurement": "EC50", "setting": "[2]", "value": "11.6 µM (active)"},
      {"measurement": "EC50", "setting": "[3]", "value": "17.6 µM (active)"}
    ]},
    {"smiles": "CC(=O)NS(=O)(=O)c1ccc(/N=c2\\ssc3c2-c2cc(C)ccc2NC3(C)C)cc1", "values": [
      {"measurement": "IC50", "setting": "[4]", "value": "> 100 µM (active)"}
    ]},
    {"smiles": "Cc1ccc2nc(N3CCN(C(=O)c4ccco4)CC3)sc2c1", "values": [
      {"measurement": "EC50", "setting": "[1]", "value": "34.9 µM (active)"},
      {"measurement": "EC50", "setting": "[2]", "value": "5.76 µM (active)"},
      {"measurement": "EC50", "setting": "[3]", "value": "> 120 µM (not active)"}
    ]},
    {"smiles": "CCCCNC(=O)c1ccccc1C(=O)NCCCC", "values": [
      {"measurement": "IC50", "setting": "[5]", "value": "< 0.4 µM (not active)"}
    ]},
    {"smiles": "CCC1CCCCN1CCCNC(=O)Cn1c2ccccc2c2nc(=O)cc(C)n21", "note": "(stereo not given)", "values": [
      {"measurement": "EC50", "setting": "[1]", "value": "> 120 µM (not active)"},
      {"measurement": "EC50", "setting": "[2]", "value": "> 120 µM (not active)"},
      {"measurement": "EC50", "setting": "[3]", "value": "> 120 µM (not active)"}
    ]},
    {"smiles": "c1ccc2[nH]c(-c3ccc4c(c3)OCO4)nc2c1", "values": [
      {"measurement": "EC50", "setting": "[6]", "value": "6.52 µM (active)"},
      {"measurement": "EC50", "setting": "[7]", "value": "1.16 µM (active)"}
    ]},
    {"smiles": "CN1C(=O)c2cc(NC(=O)c3cscn3)ccc2OC[C@H]2O[C@H](CC(=O)NCc3ccc(Cl)c(Cl)c3)CC[C@H]21", "values": [
      {"measurement": "AC50", "setting": "[8]", "value": "11.3 µM (active)"},
      {"measurement": "AC50", "setting": "[9]", "value": "41.8 µM (active)"}
    ]},
    {"smiles": "Cc1ccc(C(=O)C2CCN(CC(=O)Nc3ccc4c(c3)OCCO4)CC2)cc1", "values": [
      {"measurement": "EC50", "setting": "[6]", "value": "> 112 µM (not active)"},
      {"measurement": "EC50", "setting": "[7]", "value": "> 112 µM (not active)"}
    ]},
    {"smiles": "COc1ccc(-c2nc3cnc(N4CCOCC4)nc3n(C[C@H]3CCCO3)c2=O)cc1", "values": [
      {"measurement": "AC50", "setting": "[10]", "value": "inconclusive"},
      {"measurement": "AC50", "setting": "[11]", "value": "5.01 µM (inconclusive)"}
    ]},
    {"smiles": "CN(C)c1nn(C(=O)Nc2ccc(Cl)cc2Cl)cc1-c1ccccc1", "values": [
      {"measurement": "IC50", "setting": "[4]", "value": "38 µM (active)"}
    ]},
    {"smiles": "COc1ccc(COC(=O)Nc2cc3c(C(F)(F)F)nn(C)c3s2)cc1", "values": [
      {"measurement": "IC50", "setting": "[5]", "value": "14 µM (active)"}
    ]},
    {"smiles": "CCn1cc(NC(=O)Nc2ccccc2C(=O)OC)c(C(N)=O)n1", "values": [
      {"measurement": "EC50", "setting": "[6]", "value": "> 112 µM (not active)"},
      {"measurement": "EC50", "setting": "[7]", "value": "> 112 µM (not active)"}
    ]},
    {"smiles": "Cc1nc(NC(=O)c2ccccc2)sc1-c1csc(Nc2ccc(Cl)cc2)n1", "values": [
      {"measurement": "AC50", "setting": "[10]", "value": "inconclusive"},
      {"measurement": "AC50", "setting": "[11]", "value": "7.08 µM (inconclusive)"}
    ]},
    {"smiles": "CCOC(=O)c1ccc(/N=c2\\scc(C)n2CC)cc1", "values": [
      {"measurement": "IC50", "setting": "[5]", "value": "> 50 µM (not active)"}
    ]},
    {"smiles": "CC(=O)C1=C(C)NC(SCC(=O)c2ccccc2)=C(C#N)C1c1ccco1", "note": "(stereo not given)", "values": [
      {"measurement": "EC50", "setting": "[1]", "value": "19.5 µM (active)"},
      {"measurement": "EC50", "setting": "[2]", "value": "11 µM (active)"},
      {"measurement": "EC50", "setting": "[3]", "value": "26.5 µM (active)"}
    ]},
    {"smiles": "CC(CNC(=O)c1cc(COc2ccc3ncccc3c2)on1)c1ccccc1", "note": "(stereo not given)", "values": [
      {"measurement": "AC50", "setting": "[12]", "value": "11.2 µM (active)"},
      {"measurement": "AC50", "setting": "[13]", "value": "48.9 µM (active)"},
      {"measurement": "AC50", "setting": "[14]", "value": "3.73 µM (active)"}
    ]},
    {"smiles": "COc1ccc(N2CCC(CN=C(S)Nc3ccc(C)cc3C)C2)cc1", "note": "(stereo not given)", "values": [
      {"measurement": "IC50", "setting": "[4]", "value": "11 µM (active)"}
    ]},
    {"smiles": "COc1cccc(-n2cnc3sc(-c4ccccc4)cc3c2=O)c1", "values": [
      {"measurement": "EC50", "setting": "[1]", "value": "0.136 µM (active)"},
      {"measurement": "EC50", "setting": "[2]", "value": "0.185 µM (active)"},
      {"measurement": "EC50", "setting": "[3]", "value": "0.124 µM (active)"}
    ]},
    {"smiles": "COc1ccccc1OCCN1C(=O)S/C(=C\\c2ccco2)C1=O", "values": [
      {"measurement": "AC50", "setting": "[10]", "value": "inconclusive"}
    ]},
    {"smiles": "NS(=O)(=O)c1cc(Br)c(/N=N\\c2ccc(O)c3ncccc23)c(Br)c1", "values": [
      {"measurement": "AC50", "setting": "[10]", "value": "inconclusive"},
      {"measurement": "AC50", "setting": "[11]", "value": "1.26 µM (inconclusive)"}
    ]},
    {"smiles": "CC1CN=C(Nc2ccc(N(C)C)cc2)S1", "note": "(stereo not given)", "values": [
      {"measurement": "IC50", "setting": "[4]", "value": "9.27 µM (active)"}
    ]}
  ]
}
